The source made the active and inactive calls.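 How the source made its calls: active means IC50 below 20 µM; inactive means the rest.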
Molecular target: CRF-binding protein / CRF-R2 receptor complex (human)
Assay: CRF-BP/CRF-R2 complex antagonists, SAR follow-up, cell-based, 384-well, HEK293, calcium flux, powder samples (AID 651649)
Details: CRF-induced calcium flux, Fluo4

Row | SMILES | IC50
1 | Brc1ccccc1-c1nnc(CSc2nnnn2-c2ccccc2)o1 | 632 nM
2 | Cn1c(COc2ccccc2)nnc1SCC(=O)c1cccc([N+](=O)[O-])c1 | > 40000 nM (inactive)
3 | C=CCOc1ccc(/C=C2\SC(=S)N(NS(=O)(=O)c3ccccc3)C2=O)cc1 | 4810 nM
4 | Cc1nc2nc(SCC(=O)c3cccc([N+](=O)[O-])c3)[nH]c2cc1Br | inactive
5 | Cc1ccc(-n2nnnc2SCc2nnc(-c3ccccc3Br)o2)c(C)c1 | 6040 nM
6 | COc1ccc([N+](=O)[O-])cc1NC(=O)c1ccccc1SC | 214 nM
7 | COc1cccc(NC(=S)NC(Cc2ccccc2)c2ccccc2)c1 (stereo not drawn) | 1040 nM
8 | O=C(COc1cc(Cl)ccc1Cl)N1CCNC1=O | 5850 nM
9 | CC(C)Cn1c(SCC(=O)N2CCc3ccccc3C2)nc2cc(Cl)ccc2c1=O | 946 nM
10 | Cc1ccccc1Cn1ccc(NC(=O)c2cc3ncc(Br)cn3n2)n1 | > 40000 nM (inactive)
11 | CC(C)(C)c1cc(C(=O)NNC(=O)Nc2cccc(Cl)c2)n(Cc2ccccc2)n1 | 2540 nM
12 | Cc1ccccc1-c1cc2nc(-c3ccc([N+](=O)[O-])cc3)cc(=O)n2[nH]1 | > 40000 nM (inactive)
13 | COc1cccc2cc(-c3nnc(-c4ccccc4)o3)c(=O)oc12 | < 125 nM
14 | O=c1oc2ccc3ccccc3c2cc1-c1nnc(-c2ccccc2)o1 | 636 nM
15 | CCOc1ccc(Cl)cc1S(=O)(=O)n1nnc2ccccc21 | 1170 nM
16 | Cc1ccc(NC(=O)c2ccccc2NS(=O)(=O)c2ccc(F)cc2)cc1S(=O)(=O)N1CCCCC1 | > 40000 nM (inactive)
17 | COc1cccc(C2CC(c3cccs3)=NN2C(=O)c2ccco2)c1O (stereo not drawn) | 1540 nM
18 | NC(=O)c1ccc(NCc2ccco2)c([N+](=O)[O-])c1 | 1350 nM
19 | O=C(COc1ccc2ccccc2c1)Nc1cccc(C(=O)Nc2ccccc2C(=O)O)c1 | 7540 nM
20 | COc1ccc(Oc2ccc(C(F)(F)F)cc2NC(=O)c2ccc(OC)cc2)cc1 | > 40000 nM (inactive)
21 | CC(=O)NC(Cc1ccc(C)cc1)C(=O)NC1CCN(c2ncccc2[N+](=O)[O-])CC1 (stereo not drawn) | 2760 nM
22 | COC(=O)c1ccc(CSc2nc3ccccc3c(=O)n2-c2ccccc2)o1 | 5030 nM
23 | Cc1ccc(S(=O)(=O)N(CC(=O)Nc2ccccc2C(=O)O)c2ccc(Cl)cc2)cc1 | 3220 nM
24 | COCCNc1nc2c(S(=O)(=O)c3cc(C)ccc3C)nnn2c2ccccc12 | > 40000 nM (inactive)
25 | Cc1ccc2cccc(Oc3ncnc4scc(-c5ccccc5)c34)c2n1 | 8730 nM
26 | CC1CC(C)CN(C(=O)CSc2nc(Cc3cccs3)nc3ccccc23)C1 (stereo not drawn) | 2380 nM
27 | COc1ccc(C(=O)COC(=O)c2cccnc2SC)cc1 | > 20000 nM (inactive)
28 | O=C(O)c1ccc(COc2ccccc2C=C2C(=O)c3ccccc3C2=O)cc1 | 4520 nM

Source: PubChem BioAssay AID651649 (Sanford-Burnham Center for Chemical Genomics, 2012)
